Measured values from ChEMBL document CHEMBL4665869, “New thiazolopyrimidine as anticancer agents: Synthesis, biological evaluation, DNA binding, molecular modeling and ADMET study” (Bioorg Med Chem Lett, 2020).
Values after ≈ are worked out from the molar mass of the structure shown.

What was measured:
[1] = test system: U-251; experiment: Growth inhibition of human U-251 cells at 10 uM relative to control; format: functional; conditions: read-out: GI
[2] = test system: SNB-75; experiment: Growth inhibition of human SNB-75 cells at 10 uM relative to control; format: functional; conditions: read-out: GI
[3] = test system: ACHN; experiment: Growth inhibition of human ACHN cells at 10 uM relative to control; format: functional; conditions: read-out: GI
[4] = test system: TK-10; experiment: Growth inhibition of human TK-10 cells at 10 uM relative to control; format: functional; conditions: read-out: GI
[5] = test system: UO-31; experiment: Growth inhibition of human UO-31 cells at 10 uM relative to control; format: functional; conditions: read-out: GI
[6] = test system: A549; experiment: Growth inhibition of human A549 cells at 10 uM relative to control; format: functional; conditions: read-out: GI
[7] = test system: COLO 205; experiment: Growth inhibition of human COLO 205 cells at 10 uM relative to control; format: functional; conditions: read-out: GI
[8] = test system: SK-OV-3; experiment: Growth inhibition of human SK-OV-3 cells at 10 uM relative to control; format: functional; conditions: read-out: GI
[9] = test system: SR; experiment: Growth inhibition of human SR cells at 10 uM relative to control; format: functional; conditions: read-out: GI
[10] = test system: SF-539; experiment: Growth inhibition of human SF-539 cells at 10 uM relative to control; format: functional; conditions: read-out: GI
[11] = test system: MDA-MB-435; experiment: Growth inhibition of human MDA-MB-435 cells at 10 uM relative to control; format: functional; conditions: read-out: GI
[12] = test system: OVCAR-8; experiment: Growth inhibition of human OVCAR-8 cells at 10 uM relative to control; format: functional; conditions: read-out: GI
[13] = test system: UACC-257; experiment: Growth inhibition of human UACC-257 cells at 10 uM relative to control; format: functional; conditions: read-out: GI
[14] = test system: SK-MEL-2; experiment: Growth inhibition of human SK-MEL-2 cells at 10 uM relative to control; format: functional; conditions: read-out: GI
[15] = test system: SF-268; experiment: Growth inhibition of human SF-268 cells at 10 uM relative to control; format: functional; conditions: read-out: GI
[16] = test system: A498; experiment: Growth inhibition of human A498 cells at 10 uM relative to control; format: functional; conditions: read-out: GI
[17] = test system: MOLT-4; experiment: Growth inhibition of human MOLT-4 cells at 10 uM relative to control; format: functional; conditions: read-out: GI
[18] = test system: OVCAR-5; experiment: Growth inhibition of human OVCAR-5 cells at 10 uM relative to control; format: functional; conditions: read-out: GI
[19] = test system: NCI-H226; experiment: Growth inhibition of human NCI-H226 cells at 10 uM relative to control; format: functional; conditions: read-out: GI
[20] = test system: RPMI-8226; experiment: Growth inhibition of human RPMI-8226 cells at 10 uM relative to control; format: functional; conditions: read-out: GI
[21] = test system: NCI-H23; experiment: Growth inhibition of human NCI-H23 cells at 10 uM relative to control; format: functional; conditions: read-out: GI
[22] = test system: SNB-19; experiment: Growth inhibition of human SNB-19 cells at 10 uM relative to control; format: functional; conditions: read-out: GI
[23] = test system: KM12; experiment: Growth inhibition of human KM12 cells at 10 uM relative to control; format: functional; conditions: read-out: GI
[24] = test system: HCT-15; experiment: Growth inhibition of human HCT-15 cells at 10 uM relative to control; format: functional; conditions: read-out: GI
[25] = test system: HL-60(TB); experiment: Growth inhibition of human HL-60(TB) cells at 10 uM relative to control; format: functional; conditions: read-out: GI
[26] = test system: OVCAR-4; experiment: Growth inhibition of human OVCAR-4 cells at 10 uM relative to control; format: functional; conditions: read-out: GI
[27] = target: DNA; experiment: Displacement of methyl green from DNA (unknown origin) assessed as DNA intercalation after 24 hrs by colorimetric assay; format: nucleic-acid assay
[28] = test system: HCT-116; experiment: Growth inhibition of human HCT-116 cells at 10 uM relative to control; format: functional; conditions: read-out: GI
[29] = test system: PC-3; experiment: Growth inhibition of human PC-3 cells at 10 uM relative to control; format: functional; conditions: read-out: GI
[30] = test system: SF-295; experiment: Growth inhibition of human SF-295 cells at 10 uM relative to control; format: functional; conditions: read-out: GI
[31] = test system: Hs-578T; experiment: Growth inhibition of human Hs-578T cells at 10 uM relative to control; format: functional; conditions: read-out: GI
[32] = test system: NCI-H322M; experiment: Growth inhibition of human NCI-H322M cells at 10 uM relative to control; format: functional; conditions: read-out: GI
[33] = test system: HT-29; experiment: Growth inhibition of human HT-29 cells at 10 uM relative to control; format: functional; conditions: read-out: GI
[34] = test system: Malme-3M; experiment: Growth inhibition of human Malme-3M cells at 10 uM relative to control; format: functional; conditions: read-out: GI
[35] = test system: DU-145; experiment: Growth inhibition of human DU-145 cells at 10 uM relative to control; format: functional; conditions: read-out: GI
[36] = test system: MCF7; experiment: Growth inhibition of human MCF7 cells at 10 uM relative to control; format: functional; conditions: read-out: GI
[37] = test system: RXF 393; experiment: Growth inhibition of human RXF 393 cells at 10 uM relative to control; format: functional; conditions: read-out: GI
[38] = test system: SN12C; experiment: Growth inhibition of human SN12C cells at 10 uM relative to control; format: functional; conditions: read-out: GI
[39] = test system: BT-549; experiment: Growth inhibition of human BT-549 cells at 10 uM relative to control; format: functional; conditions: read-out: GI
[40] = test system: HOP-92; experiment: Growth inhibition of human HOP-92 cells at 10 uM relative to control; format: functional; conditions: read-out: GI
[41] = test system: NCI-H522; experiment: Growth inhibition of human NCI-H522 cells at 10 uM relative to control; format: functional; conditions: read-out: GI
[42] = test system: HOP-62; experiment: Growth inhibition of human HOP-62 cells at 10 uM relative to control; format: functional; conditions: read-out: GI
[43] = test system: IGROV-1; experiment: Growth inhibition of human IGROV-1 cells at 10 uM relative to control; format: functional; conditions: read-out: GI
[44] = test system: MDA-MB-468; experiment: Growth inhibition of human MDA-MB-468 cells at 10 uM relative to control; format: functional; conditions: read-out: GI
[45] = test system: CCRF-CEM; experiment: Growth inhibition of human CCRF-CEM cells at 10 uM relative to control; format: functional; conditions: read-out: GI
[46] = test system: CAKI-1; experiment: Growth inhibition of human CAKI-1 cells at 10 uM relative to control; format: functional; conditions: read-out: GI
[47] = test system: LOX IMVI; experiment: Growth inhibition of human LOX IMVI cells at 10 uM relative to control; format: functional; conditions: read-out: GI
[48] = test system: NCI/ADR-RES; experiment: Growth inhibition of human NCI/ADR-RES cells at 10 uM relative to control; format: functional; conditions: read-out: GI
[49] = test system: NCI-H460; experiment: Growth inhibition of human NCI-H460 cells at 10 uM relative to control; format: functional; conditions: read-out: GI
[50] = test system: M14; experiment: Growth inhibition of human M14 cells at 10 uM relative to control; format: functional; conditions: read-out: GI
[51] = test system: T47D; experiment: Growth inhibition of human T47D cells at 10 uM relative to control; format: functional; conditions: read-out: GI
[52] = test system: SK-MEL-5; experiment: Growth inhibition of human SK-MEL-5 cells at 10 uM relative to control; format: functional; conditions: read-out: GI
[53] = test system: UACC-62; experiment: Growth inhibition of human UACC-62 cells at 10 uM relative to control; format: functional; conditions: read-out: GI
[54] = test system: HCC 2998; experiment: Growth inhibition of human HCC 2998 cells at 10 uM relative to control; format: functional; conditions: read-out: GI
[55] = test system: SW-620; experiment: Growth inhibition of human SW-620 cells at 10 uM relative to control; format: functional; conditions: read-out: GI
[56] = test system: 786-0; experiment: Growth inhibition of human 786-0 cells at 10 uM relative to control; format: functional; conditions: read-out: GI
[57] = test system: MDA-MB-231; experiment: Growth inhibition of human MDA-MB-231 cells at 10 uM relative to control; format: functional; conditions: read-out: GI
[58] = test system: SK-MEL-28; experiment: Growth inhibition of human SK-MEL-28 cells at 10 uM relative to control; format: functional; conditions: read-out: GI
[59] = test system: K562; experiment: Growth inhibition of human K562 cells at 10 uM relative to control; format: functional; conditions: read-out: GI

CCOC(=O)C1=CSC2=NC(/C=C/c3ccc(OC)c(OC)c3)=CC(c3ccc(OC)c(OC)c3)N12 (centres undefined)
inhibition of growth at 10 µM [1]: < 10%
inhibition of growth at 10 µM [2]: 25.3%
inhibition of growth at 10 µM [3]: 12.8%
inhibition of growth at 10 µM [4]: < 10%
inhibition of growth at 10 µM [5]: 20.2%
inhibition of growth at 10 µM [6]: < 10%
inhibition of growth at 10 µM [7]: < 10%
inhibition of growth at 10 µM [8]: < 10%
inhibition of growth at 10 µM [9]: < 10%
inhibition of growth at 10 µM [10]: < 10%
inhibition of growth at 10 µM [11]: < 10%
inhibition of growth at 10 µM [12]: < 10%
inhibition of growth at 10 µM [13]: < 10%
inhibition of growth at 10 µM [14]: < 10%
inhibition of growth at 10 µM [15]: < 10%
inhibition of growth at 10 µM [16]: < 10%
inhibition of growth at 10 µM [17]: < 10%
inhibition of growth at 10 µM [18]: < 10%
inhibition of growth at 10 µM [19]: < 10%
inhibition of growth at 10 µM [20]: < 10%
inhibition of growth at 10 µM [21]: < 10%
inhibition of growth at 10 µM [22]: < 10%
inhibition of growth at 10 µM [23]: < 10%
inhibition of growth at 10 µM [24]: < 10%
inhibition of growth at 10 µM [25]: < 10%
inhibition of growth at 10 µM [26]: < 10%
IC50 [27]: 29.86 µg/mL (≈ 58.7 µM)
inhibition of growth at 10 µM [28]: < 10%
inhibition of growth at 10 µM [29]: 11.3%
inhibition of growth at 10 µM [30]: < 10%
inhibition of growth at 10 µM [31]: < 10%
inhibition of growth at 10 µM [32]: < 10%
inhibition of growth at 10 µM [33]: < 10%
inhibition of growth at 10 µM [34]: < 10%
inhibition of growth at 10 µM [35]: < 10%
inhibition of growth at 10 µM [36]: < 10%
inhibition of growth at 10 µM [37]: < 10%
inhibition of growth at 10 µM [38]: < 10%
inhibition of growth at 10 µM [39]: < 10%
inhibition of growth at 10 µM [40]: 39.5%
inhibition of growth at 10 µM [41]: 12%
inhibition of growth at 10 µM [42]: < 10%
inhibition of growth at 10 µM [43]: < 10%
inhibition of growth at 10 µM [44]: < 10%
inhibition of growth at 10 µM [45]: < 10%
inhibition of growth at 10 µM [46]: < 10%
inhibition of growth at 10 µM [47]: < 10%
inhibition of growth at 10 µM [48]: < 10%
inhibition of growth at 10 µM [49]: < 10%
inhibition of growth at 10 µM [50]: < 10%
inhibition of growth at 10 µM [51]: < 10%
inhibition of growth at 10 µM [52]: < 10%
inhibition of growth at 10 µM [53]: < 10%
inhibition of growth at 10 µM [54]: < 10%
inhibition of growth at 10 µM [55]: < 10%
inhibition of growth at 10 µM [56]: < 10%
inhibition of growth at 10 µM [57]: < 10%
inhibition of growth at 10 µM [58]: < 10%
inhibition of growth at 10 µM [59]: < 10%
